Experimental data taken from US9708314B2, “Heterocyclic amide compound” (NISSAN CHEMICAL INDUSTRIES, LTD., priority 2013, dated 2017).

Assays:
Type in all cases: in vivo
[1] = tested on: Echinochloa oryzacola Vasing.; experiment: Test Example 1: herbicidal activity, application before weed generation in submerged conditions; conditions: Application herbicide amount 320 g/ha; Seventeenth Table
Summary of the method: (§1)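 Alluvial soil in Wagner pots flooded to 4 cm water depth; weed seeds sown and 2.5 leaf stage rice seedlings transplanted. Emulsion diluted in water applied to water surface on sowing day at stated g/ha. Greenhouse 25° C. to 30° C.; effects scored 0–5 by herbicidal ratio after three weeks.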

[2] = tested on: Monochoria vaginalis; experiment: as above; conditions: Application herbicide amount 320 g/ha; Seventeenth Table
Summary of the method: as §1

[3] = tested on: Scirpus juncoides; experiment: as above; conditions: Application herbicide amount 320 g/ha; Seventeenth Table
Summary of the method: as §1

[4] = tested on: transplanted Oryza sativa; experiment: Test Example 1: effect on crop, application before weed generation in submerged conditions; conditions: Application herbicide amount 320 g/ha; Seventeenth Table
Summary of the method: as §1

[5] = tested on: Echinochloa oryzacola Vasing.; experiment: Test Example 2: herbicidal activity, application during weed generation in submerged conditions; conditions: Eighteenth Table; application herbicide amount 320 g/ha
Summary of the method: (§2)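 Alluvial soil in Wagner pots flooded to 4 cm water depth; seeds sown mixed, grown in greenhouse at 25–30 °C. At one- to two-leaf stage, emulsion diluted with water to the set rate (g/ha) was applied to the water surface. Effect scored 0–5 by herbicidal ratio three weeks later.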

[6] = tested on: Monochoria vaginalis; experiment: as above; conditions: Eighteenth Table; application herbicide amount 320 g/ha
Summary of the method: as §2

[7] = tested on: Scirpus juncoides; experiment: as above; conditions: Eighteenth Table; application herbicide amount 320 g/ha
Summary of the method: as §2

[8] = tested on: Cyperus difformis; experiment: Test Example 3: herbicidal effect by application to foliage (Wagner pot, water depth 0.1-0.5 cm); conditions: Nineteenth Table; application to foliage; application herbicide amount 320 g/ha
Summary of the method: (§3)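 Greenhouse pot test, 25–30 °C, alluvial soil. Sown seedlings grown 14 days then sprayed on leaves and stems with emulsion diluted to target g/ha. Rating at 3 weeks, 0–5 scale (0 ≤5%, 5 ≥90%).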

[9] = tested on: Echinochloa crus-galli var. crus-galli; experiment: as above; conditions: Nineteenth Table; application to foliage; application herbicide amount 320 g/ha
Summary of the method: as §3

[10] = tested on: Leptochloa chinensis; experiment: as above; conditions: Nineteenth Table; application to foliage; application herbicide amount 320 g/ha
Summary of the method: as §3

Structure (SMILES) | A: Echinochloa oryzicola Vasing. (herbicidal effect grade) [1] | C: Monochoria vaginalis (herbicidal effect grade) [2] | B: Scirpus juncoides (herbicidal effect grade) [3] | a: transplanted Oryza sativa (effect on crop grade) [4] | A (Echinochloa oryzicola Vasing.) herbicidal ratio grade [5] | C (Monochoria vaginalis) herbicidal ratio grade [6] | B (Scirpus juncoides) herbicidal ratio grade [7] | E (herbicidal effect grade) [8] | H (herbicidal effect grade) [9] | D (herbicidal effect grade) [10]
CN(C)c1nnc2c(C(=O)Nc3nnnn3C)ccc(C(F)(F)F)n12 [2-051] | 5 (Herbicidal ratio of 90% or more (almost completely withered)) | 5 (Herbicidal ratio of 90% or more (almost completely withered)) | 5 (Herbicidal ratio of 90% or more (almost completely withered)) | 4 (Herbicidal ratio of 70% or more and less than 90%) | 5 (Herbicidal ratio of 90% or more (almost completely withered)) | 5 (Herbicidal ratio of 90% or more (almost completely withered)) | 5 (Herbicidal ratio of 90% or more (almost completely withered)) | 5 (Herbicidal ratio of 90% or more (almost completely withered)) | 5 (Herbicidal ratio of 90% or more (almost completely withered)) | 5 (Herbicidal ratio of 90% or more (almost completely withered))
Cn1nnnc1NC(=O)c1ccc(C(F)(F)F)n2c(-c3ccc(F)cc3)nnc12 [2-043] | 5 (Herbicidal ratio of 90% or more (almost completely withered)) | 5 (Herbicidal ratio of 90% or more (almost completely withered)) | 5 (Herbicidal ratio of 90% or more (almost completely withered)) | 4 (Herbicidal ratio of 70% or more and less than 90%) | 5 (Herbicidal ratio of 90% or more (almost completely withered)) | 4 (Herbicidal ratio of 70% or more and less than 90%) | 4 (Herbicidal ratio of 70% or more and less than 90%) | 5 (Herbicidal ratio of 90% or more (almost completely withered)) | 5 (Herbicidal ratio of 90% or more (almost completely withered)) | 5 (Herbicidal ratio of 90% or more (almost completely withered))
Cn1nnnc1NC(=O)c1ccc(C(F)(F)F)n2c(CS(C)(=O)=O)nnc12 [2-034] | 5 (Herbicidal ratio of 90% or more (almost completely withered)) | 4 (Herbicidal ratio of 70% or more and less than 90%) | 4 (Herbicidal ratio of 70% or more and less than 90%) | 4 (Herbicidal ratio of 70% or more and less than 90%) | 5 (Herbicidal ratio of 90% or more (almost completely withered)) | 4 (Herbicidal ratio of 70% or more and less than 90%) | 4 (Herbicidal ratio of 70% or more and less than 90%) | 5 (Herbicidal ratio of 90% or more (almost completely withered)) | 5 (Herbicidal ratio of 90% or more (almost completely withered)) | 5 (Herbicidal ratio of 90% or more (almost completely withered))
Cn1nnnc1NC(=O)c1ccc(C(F)(F)F)n2c(SCC3CCCO3)nnc12 (stereo not drawn) [2-085] | 5 (Herbicidal ratio of 90% or more (almost completely withered)) | 4 (Herbicidal ratio of 70% or more and less than 90%) | 5 (Herbicidal ratio of 90% or more (almost completely withered)) | 1 (Herbicidal ratio of 5% or more and less than 20%) | 4 (Herbicidal ratio of 70% or more and less than 90%) | 3 (Herbicidal ratio of 40% or more and less than 70%) | 4 (Herbicidal ratio of 70% or more and less than 90%) | 4 (Herbicidal ratio of 70% or more and less than 90%) | 5 (Herbicidal ratio of 90% or more (almost completely withered)) | 5 (Herbicidal ratio of 90% or more (almost completely withered))
Cc1nnc2c(C(=O)Nc3nnnn3C)ccc(C(F)(F)F)n12 [2-002] | 2 (Herbicidal ratio of 20% or more and less than 40%) | 3 (Herbicidal ratio of 40% or more and less than 70%) | 3 (Herbicidal ratio of 40% or more and less than 70%) | 0 (Herbicidal ratio of 5% or less (almost no effect)) | 2 (Herbicidal ratio of 20% or more and less than 40%) | 2 (Herbicidal ratio of 20% or more and less than 40%) | 1 (Herbicidal ratio of 5% or more and less than 20%) | 2 (Herbicidal ratio of 20% or more and less than 40%) | 5 (Herbicidal ratio of 90% or more (almost completely withered)) | 4 (Herbicidal ratio of 70% or more and less than 90%)
COCCn1nnnc1NC(=O)c1ccc(C(F)(F)F)n2c(C(C)C)nnc12 [2-041] | 5 (Herbicidal ratio of 90% or more (almost completely withered)) | 4 (Herbicidal ratio of 70% or more and less than 90%) | 5 (Herbicidal ratio of 90% or more (almost completely withered)) | 0 (Herbicidal ratio of 5% or less (almost no effect)) | 5 (Herbicidal ratio of 90% or more (almost completely withered)) | 3 (Herbicidal ratio of 40% or more and less than 70%) | 4 (Herbicidal ratio of 70% or more and less than 90%) | 5 (Herbicidal ratio of 90% or more (almost completely withered)) | 5 (Herbicidal ratio of 90% or more (almost completely withered)) | 5 (Herbicidal ratio of 90% or more (almost completely withered))
CCCSc1nnc2c(C(=O)Nc3nnnn3C)ccc(C(F)(F)F)n12 [2-068] | 5 (Herbicidal ratio of 90% or more (almost completely withered)) | 4 (Herbicidal ratio of 70% or more and less than 90%) | 5 (Herbicidal ratio of 90% or more (almost completely withered)) | 5 (Herbicidal ratio of 90% or more (almost completely withered)) | 5 (Herbicidal ratio of 90% or more (almost completely withered)) | 4 (Herbicidal ratio of 70% or more and less than 90%) | 5 (Herbicidal ratio of 90% or more (almost completely withered)) | 5 (Herbicidal ratio of 90% or more (almost completely withered)) | 5 (Herbicidal ratio of 90% or more (almost completely withered)) | 5 (Herbicidal ratio of 90% or more (almost completely withered))
CC(C)c1nnc2c(C(=O)Nc3nnnn3-c3ccccc3)ccc(C(F)(F)F)n12 [2-073] | 4 (Herbicidal ratio of 70% or more and less than 90%) | 4 (Herbicidal ratio of 70% or more and less than 90%) | 3 (Herbicidal ratio of 40% or more and less than 70%) | 2 (Herbicidal ratio of 20% or more and less than 40%) | 2 (Herbicidal ratio of 20% or more and less than 40%) | 3 (Herbicidal ratio of 40% or more and less than 70%) | 2 (Herbicidal ratio of 20% or more and less than 40%) | 5 (Herbicidal ratio of 90% or more (almost completely withered)) | 4 (Herbicidal ratio of 70% or more and less than 90%) | 3 (Herbicidal ratio of 40% or more and less than 70%)
CC(c1nnc2c(C(=O)Nc3nnnn3C)ccc(C(F)(F)F)n12)S(C)(=O)=O (stereo not drawn) [2-054] | 5 (Herbicidal ratio of 90% or more (almost completely withered)) | 5 (Herbicidal ratio of 90% or more (almost completely withered)) | 5 (Herbicidal ratio of 90% or more (almost completely withered)) | 5 (Herbicidal ratio of 90% or more (almost completely withered)) | 5 (Herbicidal ratio of 90% or more (almost completely withered)) | 5 (Herbicidal ratio of 90% or more (almost completely withered)) | 4 (Herbicidal ratio of 70% or more and less than 90%) | 5 (Herbicidal ratio of 90% or more (almost completely withered)) | 5 (Herbicidal ratio of 90% or more (almost completely withered)) | 5 (Herbicidal ratio of 90% or more (almost completely withered))
